Key:
[1] = tested on: rodent and non-human primate models of T2DM; design: method as in PMID 28705990; conditions: cited from earlier work
human GST-AMPK α1β1γ3 = target: T1, human GST-AMPK α1β1γ3 (Homo sapiens, UniProt Q13131+Q9Y478); test: Radiolabel SAMS kinase assay, immobilised GST-AMPK; type: biochemical; conditions: 1 µM compound
T1 construct: triply transfected with full-length AMPK α1 or α2 (NH2-terminal GST fusion, pDEST27 vector); full-length AMPK α1 or α2 (NH2-terminal GST fusion, pDEST27 vector), β1 or β2 (COOH-terminal FLAG fusion, pcDNA3.1 vector); FLAG (C); made in house; host or cells: HEK293T/17 cells, transient triple transfection
Excerpt: (§1) We generated a series of compounds to investigate whether modification of the SC4 2-hydroxybiphenyl LHS fragment affects isoform selectivity, some of which (MSG008-MSG011) are presented in Table 1. We also synthesised compound MSG012 (example I-3-54 [32]), which was reported to activate α2β2γ1 with ∼100-fold greater potency compared with α1β1γ1. MSG012 differs from SC4 by substitution of the 2-hydroxyphenyl LHS fragment with 3-cyclohexen-4-yl-1-carboxylic acid, and 2-methylbenzoic acid RHS fragment with 1-hydroxy-N,N-dimethylcyclohexan-4-yl-1-carboxamide. Our initial screen involved measuring the activity of recombinant human GST-AMPK complexes expressed in HEK293T/17 cells and immobilised on glutathione-Sepharose (Supplementary Figure S1). Enzyme activity was measured by radiolabelling the synthetic SAMS peptide substrate in the absence or presence of 1 µM compound. Consistent with our previous characterisation, SC4 activated α1β1γ1, α2β1γ1 and α2β2γ1 >2.3-fold, and weakly activated α1β2γ1 1.3-fold (Figure 1A). […] The γ isoform had little influence on AMPK activation by MSG011 as most γ2 and γ3 complexes were activated >2.2-fold at 1 µM, with α1β2γ2 being the only exception (1.6-fold activation). […] Accordingly, MSG010, MSG011 and MSG012 can be classified as pan AMPK activators.
(§2) Adherent HEK293T/17 cells at ∼50% confluency were triply transfected with full-length AMPK α1 or α2 (NH2-terminal GST fusion, pDEST27 vector), β1 or β2 (COOH-terminal FLAG fusion, pcDNA3.1 vector), and γ1, γ2 or γ3 (NH2-terminal HA fusion, pMT2 vector) in the presence of FuGENE HD transfection reagent (Promega) as per the manufacturers protocol. Cells were harvested 48 hours post-transfection by first gently washing in ice cold phosphate buffered saline (PBS; Sigma–Aldrich), then scraping in ice cold lysis buffer (50 mM TRIS pH 7.5, 150 mM NaCl, 10% (v/v) glycerol, 50 mM NaF, 5 mM sodium pyrophosphate, 1% (v/v) Triton X-100, cOmplete protease inhibitor cocktail). Lysates were clarified by centrifugation (16 000g, 3 min, 4°C), flash frozen in liquid N2 and stored at −80°C until analysis. For radioactive kinase assays, AMPK was immobilised on glutathione Sepharose 4B resin (GE Healthcare) by incubation with lysates for 1.5 h at 4°C. Following centrifugation (1000g, 3 min, 4°C), the resin was washed twice in purification buffer (50 mM HEPES pH 7.4, 150 mM NaCl, 10% (v/v) glycerol, 0.02% (v/v) Tween-20), once in 50 mM HEPES pH 7.4 with 0.02% (v/v) Tween-20, then resuspended to a 50% slurry with 50 mM HEPES pH 7.4 and 10 µl added to the activity assays. For in solution kinase assays, α1β1γ1 AMPK was eluted from glutathione-Sepharose by incubating with purification buffer supplemented with 40 mM reduced glutathione (Sigma–Aldrich).
(§3) AMPK activity was determined by phosphorylation of the SAMS peptide (Purar Chemicals, sequence: NH2-HMRSAMSGLHLVKRR-COOH) in a 25 µl reaction volume containing 100 µM SAMS peptide, 5 mM MgCl2, 200 µM ATP, [γ-^32P]-ATP (PerkinElmer) and assay buffer (50 mM HEPES pH 7.4, 1 mM DTT and 0.02% (v/v) Tween-20) and purified AMPK. Phosphotransferase activity was conducted at 30°C for 10 min and reactions were quenched by spotting 15 µl onto phosphocellulose ion-exchange chromatography paper (made in-house), followed by repeated washes in 1% H3PO4 (Merck Millipore). Ultima Gold liquid scintillation fluid (5 ml; PerkinElmer) was added to vials containing dried phosphocellulose papers, and the level of ^32P-transfer to the SAMS peptide was determined using a Tri-Carb 2900TR liquid scintillation counter (PerkinElmer).

human GST-AMPK α2β2γ2 = target: T2, human GST-AMPK α2β2γ2 (Homo sapiens, UniProt O43741+P54646); test: Radiolabel SAMS kinase assay, immobilised GST-AMPK; type: biochemical; conditions: 1 µM compound
T2 construct: triply transfected with full-length AMPK α1 or α2 (NH2-terminal GST fusion, pDEST27 vector); full-length AMPK α1 or α2 (NH2-terminal GST fusion, pDEST27 vector), β1 or β2 (COOH-terminal FLAG fusion, pcDNA3.1 vector); FLAG (C); made in house; host or cells: HEK293T/17 cells, transient triple transfection
Excerpt: as §1, §2, §3

human GST-AMPK α2β1γ2 = target: T3, human GST-AMPK α2β1γ2 (Homo sapiens, UniProt P54646+Q9Y478); test: Radiolabel SAMS kinase assay, immobilised GST-AMPK; type: biochemical; conditions: 1 µM compound
T3 construct: triply transfected with full-length AMPK α1 or α2 (NH2-terminal GST fusion, pDEST27 vector); full-length AMPK α1 or α2 (NH2-terminal GST fusion, pDEST27 vector), β1 or β2 (COOH-terminal FLAG fusion, pcDNA3.1 vector); FLAG (C); made in house; host or cells: HEK293T/17 cells, transient triple transfection
Excerpt: as §1, §2, §3

human GST-AMPK α2β1γ3 = target: T4, human GST-AMPK α2β1γ3 (Homo sapiens, UniProt P54646+Q9Y478); test: Radiolabel SAMS kinase assay, immobilised GST-AMPK; type: biochemical; conditions: 1 µM compound
T4 construct: triply transfected with full-length AMPK α1 or α2 (NH2-terminal GST fusion, pDEST27 vector); full-length AMPK α1 or α2 (NH2-terminal GST fusion, pDEST27 vector), β1 or β2 (COOH-terminal FLAG fusion, pcDNA3.1 vector); FLAG (C); made in house; host or cells: HEK293T/17 cells, transient triple transfection
Excerpt: as §1, §2, §3

human GST-AMPK α2β2γ3 = target: T5, human GST-AMPK α2β2γ3 (Homo sapiens, UniProt O43741+P54646); test: Radiolabel SAMS kinase assay, immobilised GST-AMPK; type: biochemical; conditions: 1 µM compound
T5 construct: triply transfected with full-length AMPK α1 or α2 (NH2-terminal GST fusion, pDEST27 vector); full-length AMPK α1 or α2 (NH2-terminal GST fusion, pDEST27 vector), β1 or β2 (COOH-terminal FLAG fusion, pcDNA3.1 vector); FLAG (C); made in house; host or cells: HEK293T/17 cells, transient triple transfection
Excerpt: as §1, §2, §3

human GST-AMPK α1β1γ2 = target: T6, human GST-AMPK α1β1γ2 (Homo sapiens, UniProt Q13131+Q9Y478); test: Radiolabel SAMS kinase assay, immobilised GST-AMPK; type: biochemical; conditions: 1 µM compound
T6 construct: triply transfected with full-length AMPK α1 or α2 (NH2-terminal GST fusion, pDEST27 vector); full-length AMPK α1 or α2 (NH2-terminal GST fusion, pDEST27 vector), β1 or β2 (COOH-terminal FLAG fusion, pcDNA3.1 vector); FLAG (C); made in house; host or cells: HEK293T/17 cells, transient triple transfection
Excerpt: as §1, §2, §3

human GST-AMPK α1β2γ3 = target: T7, human GST-AMPK α1β2γ3 (Homo sapiens, UniProt O43741+Q13131); test: Radiolabel SAMS kinase assay, immobilised GST-AMPK; type: biochemical; conditions: 1 µM compound
T7 construct: triply transfected with full-length AMPK α1 or α2 (NH2-terminal GST fusion, pDEST27 vector); full-length AMPK α1 or α2 (NH2-terminal GST fusion, pDEST27 vector), β1 or β2 (COOH-terminal FLAG fusion, pcDNA3.1 vector); FLAG (C); made in house; host or cells: HEK293T/17 cells, transient triple transfection
Excerpt: as §1, §2, §3

human GST-AMPK α1β2γ2 = target: T8, human GST-AMPK α1β2γ2 (Homo sapiens, UniProt O43741+Q13131); test: Radiolabel SAMS kinase assay, immobilised GST-AMPK; type: biochemical; conditions: 1 µM compound
T8 construct: triply transfected with full-length AMPK α1 or α2 (NH2-terminal GST fusion, pDEST27 vector); full-length AMPK α1 or α2 (NH2-terminal GST fusion, pDEST27 vector), β1 or β2 (COOH-terminal FLAG fusion, pcDNA3.1 vector); FLAG (C); made in house; host or cells: HEK293T/17 cells, transient triple transfection
Excerpt: as §1, §2, §3

human GST-AMPK α1β2γ1 = target: T9, human GST-AMPK α1β2γ1 (Homo sapiens, UniProt O43741+Q13131); test: Radiolabel SAMS kinase assay, GST-AMPK from HEK293T/17 cells immobilised on glutathione-Sepharose; type: biochemical; conditions: 1 µM compound
T9 construct: triply transfected with full-length AMPK α1 or α2 (NH2-terminal GST fusion, pDEST27 vector); full-length AMPK α1 or α2 (NH2-terminal GST fusion, pDEST27 vector), β1 or β2 (COOH-terminal FLAG fusion, pcDNA3.1 vector); FLAG (C); made in house; host or cells: HEK293T/17 cells, transient triple transfection
Excerpt: as §1, §2, §3

human GST-AMPK α2β1γ1 = target: T10, human GST-AMPK α2β1γ1 (Homo sapiens, UniProt P54646+Q9Y478); test: as above; type: biochemical; conditions: 1 µM compound
T10 construct: triply transfected with full-length AMPK α1 or α2 (NH2-terminal GST fusion, pDEST27 vector); full-length AMPK α1 or α2 (NH2-terminal GST fusion, pDEST27 vector), β1 or β2 (COOH-terminal FLAG fusion, pcDNA3.1 vector); FLAG (C); made in house; host or cells: HEK293T/17 cells, transient triple transfection
Excerpt: as §1, §2, §3

human GST-AMPK α2β2γ1 = target: T11, human GST-AMPK α2β2γ1 (Homo sapiens, UniProt O43741+P54646); test: as above; type: biochemical; conditions: 1 µM compound
T11 construct: triply transfected with full-length AMPK α1 or α2 (NH2-terminal GST fusion, pDEST27 vector); full-length AMPK α1 or α2 (NH2-terminal GST fusion, pDEST27 vector), β1 or β2 (COOH-terminal FLAG fusion, pcDNA3.1 vector); FLAG (C); made in house; host or cells: HEK293T/17 cells, transient triple transfection
Excerpt: as §1, §2, §3

T4 sequence (P54646 whole entry, the tested form may be a part): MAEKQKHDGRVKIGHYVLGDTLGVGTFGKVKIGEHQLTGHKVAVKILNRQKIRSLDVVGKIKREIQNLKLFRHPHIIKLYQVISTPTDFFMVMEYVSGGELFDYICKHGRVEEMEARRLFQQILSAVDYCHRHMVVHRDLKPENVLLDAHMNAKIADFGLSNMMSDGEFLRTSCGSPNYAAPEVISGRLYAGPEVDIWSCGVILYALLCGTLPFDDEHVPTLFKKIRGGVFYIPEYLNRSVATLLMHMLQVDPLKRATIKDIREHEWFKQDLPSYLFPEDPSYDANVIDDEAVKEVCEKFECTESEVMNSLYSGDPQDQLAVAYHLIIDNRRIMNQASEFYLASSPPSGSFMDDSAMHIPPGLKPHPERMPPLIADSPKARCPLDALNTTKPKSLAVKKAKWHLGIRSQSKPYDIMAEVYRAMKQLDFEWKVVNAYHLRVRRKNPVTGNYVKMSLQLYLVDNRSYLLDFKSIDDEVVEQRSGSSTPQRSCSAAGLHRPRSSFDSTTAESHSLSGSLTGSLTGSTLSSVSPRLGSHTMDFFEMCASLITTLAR
T4 sequence (Q9Y478 whole entry, the tested form may be a part): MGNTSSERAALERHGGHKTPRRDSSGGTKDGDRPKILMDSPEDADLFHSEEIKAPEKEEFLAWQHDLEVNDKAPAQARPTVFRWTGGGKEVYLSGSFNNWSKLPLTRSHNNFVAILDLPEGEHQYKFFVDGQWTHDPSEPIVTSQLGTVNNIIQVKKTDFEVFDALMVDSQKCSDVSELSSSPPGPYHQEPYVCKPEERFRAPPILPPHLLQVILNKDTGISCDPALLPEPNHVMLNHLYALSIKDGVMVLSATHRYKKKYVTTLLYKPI
T4 sequence (Q9UGI9 whole entry partner, the tested form may be a part): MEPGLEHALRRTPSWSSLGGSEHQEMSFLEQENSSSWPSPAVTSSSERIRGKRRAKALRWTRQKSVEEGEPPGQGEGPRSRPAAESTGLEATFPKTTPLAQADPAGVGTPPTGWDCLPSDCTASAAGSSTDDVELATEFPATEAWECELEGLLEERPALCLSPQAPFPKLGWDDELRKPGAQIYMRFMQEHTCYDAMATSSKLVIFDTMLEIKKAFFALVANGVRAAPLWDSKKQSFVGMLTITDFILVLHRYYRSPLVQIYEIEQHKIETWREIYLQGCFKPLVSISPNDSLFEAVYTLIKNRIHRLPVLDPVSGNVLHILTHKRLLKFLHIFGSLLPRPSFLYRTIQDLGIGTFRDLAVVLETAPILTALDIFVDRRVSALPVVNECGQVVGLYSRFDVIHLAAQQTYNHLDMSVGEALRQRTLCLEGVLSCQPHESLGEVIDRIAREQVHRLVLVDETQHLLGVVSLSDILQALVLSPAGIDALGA
T5 sequence (P54646 whole entry, the tested form may be a part): as the sequence (P54646 whole entry, the tested form may be a part) above
T5 sequence (O43741 whole entry, the tested form may be a part): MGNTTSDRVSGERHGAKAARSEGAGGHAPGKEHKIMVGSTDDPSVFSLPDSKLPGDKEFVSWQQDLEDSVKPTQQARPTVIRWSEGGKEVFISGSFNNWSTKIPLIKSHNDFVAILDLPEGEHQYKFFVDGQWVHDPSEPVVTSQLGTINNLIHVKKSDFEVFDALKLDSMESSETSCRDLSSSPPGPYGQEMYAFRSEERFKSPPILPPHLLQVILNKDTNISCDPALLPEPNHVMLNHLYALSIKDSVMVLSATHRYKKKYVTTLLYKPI
T5 sequence (Q9UGI9 whole entry partner, the tested form may be a part): as the sequence (Q9UGI9 whole entry partner, the tested form may be a part) above
T10 sequence (P54646 whole entry, the tested form may be a part): as the sequence (P54646 whole entry, the tested form may be a part) above
T10 sequence (Q9Y478 whole entry, the tested form may be a part): as the sequence (Q9Y478 whole entry, the tested form may be a part) above
T10 sequence (P54619 whole entry partner, the tested form may be a part): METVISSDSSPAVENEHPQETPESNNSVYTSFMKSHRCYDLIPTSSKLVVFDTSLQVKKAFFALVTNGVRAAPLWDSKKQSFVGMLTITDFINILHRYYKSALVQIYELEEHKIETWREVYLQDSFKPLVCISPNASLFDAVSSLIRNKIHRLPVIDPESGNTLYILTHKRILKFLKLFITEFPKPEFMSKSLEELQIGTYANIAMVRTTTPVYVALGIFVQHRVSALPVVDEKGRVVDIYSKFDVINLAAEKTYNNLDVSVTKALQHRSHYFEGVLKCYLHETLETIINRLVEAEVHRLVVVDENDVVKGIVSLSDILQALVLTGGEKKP
T11 sequence (P54646 whole entry, the tested form may be a part): as the sequence (P54646 whole entry, the tested form may be a part) above
T11 sequence (O43741 whole entry, the tested form may be a part): as the sequence (O43741 whole entry, the tested form may be a part) above
T11 sequence (P54619 whole entry partner, the tested form may be a part): as the sequence (P54619 whole entry partner, the tested form may be a part) above

Row | Structure (SMILES) | cardiac hypertrophy ([1]; lean and diabetic animal models) | key disease hallmarks (systemic glucose clearance, glycaemic control) ([1]; rodent and non-human primate models of T2DM) | fold AMPK activation relative to vehicle (human GST-AMPK α1β1γ3) [fold] | fold AMPK activation relative to vehicle (human GST-AMPK α2β2γ2) [fold] | fold AMPK activation relative to vehicle (human GST-AMPK α2β1γ2) [fold] | fold AMPK activation relative to vehicle (human GST-AMPK α2β1γ3) [fold] | fold AMPK activation relative to vehicle (human GST-AMPK α2β2γ3) [fold] | fold AMPK activation relative to vehicle (human GST-AMPK α1β1γ2) [fold] | fold AMPK activation relative to vehicle (human GST-AMPK α1β2γ3) [fold] | fold AMPK activation relative to vehicle (human GST-AMPK α1β2γ2) [fold] | fold AMPK activation relative to vehicle (human GST-AMPK α1β2γ1) [fold] | fold AMPK activation relative to vehicle (human GST-AMPK α2β1γ1) [fold] | fold AMPK activation relative to vehicle (human GST-AMPK α2β2γ1) [fold]
1 | O[C@@H]1CO[C@H]2[C@@H]1OC[C@H]2Oc1nc2nc(-c3ccc(-c4ccccc4)cc3)c(Cl)cc2[nH]1 [MK-8722, reference compound] | reversible cardiac hypertrophy | robust improvements in key disease hallmarks |  |  |  |  |  |  |  |  |  |  | 
2 | CC(=O)NC1CC=C(c2ccc(-c3nc4nc(Oc5ccc(C)c(C(=O)O)c5)[nH]c4cc3Cl)cc2)CC1 (stereo not shown) [MSG011, 5-((5-(4′-Acetamido-2′,3′,4′,5′-tetrahydro-[1,1′-biphenyl]-4-yl)-6-chloro-1H-imidazo[4,5-b]pyridin-2-yl)oxy)-2-methylbenzoic acid] |  |  | > 2.2 | > 2.2 | > 2.2 | > 2.2 | > 2.2 | > 2.2 | > 2.2 | 1.6 | > 2.2 | > 2.2 | > 2.2

Reference: PMC9317966, “Structure-function analysis of the AMPK activator SC4 and identification of a potent pan AMPK activator” (Biochemical Journal, 2022)
